Results taken from the supplement of paper PMC9663587.

How the values were obtained:
THZ1 = compound: CN(C)C/C=C/C(=O)Nc1ccc(C(=O)Nc2cccc(Nc3ncc(Cl)c(-c4c[nH]c5ccccc45)n3)c2)cc1 [THZ1]; experiment: GR value, 72 h; higher = faster growth (1 = untreated, <0 = killing);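 note: breast cancer and non-malignant breast epithelial lines, nine half-log doses, viable cells counted by Hoechst and LIVE/DEAD dye imaging versus time-zero plates and DMSO controls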
BSJ-03-123 = compound: CC(=O)c1c(C)c2cnc(Nc3ccc(N4CCN(CCOCCOCCOCCNC(=O)COc5cccc6c5C(=O)N(C5CCC(=O)NC5=O)C6=O)CC4)cn3)nc2n(C2CCCC2)c1=O [BSJ-03-123]; experiment: as above
[1] = compound: CCN1CCN(Cc2ccc(Nc3ncc(F)c(-c4cc(F)c5nc(C)n(C(C)C)c5c4)n3)nc2)CC1; experiment: as above
LEE011/Ribociclib [2] = compound: T1, CN(C)C(=O)c1cc2cnc(Nc3ccc(N4CCNCC4)cn3)nc2n1C1CCCC1 [LEE011/Ribociclib]; experiment: as above
[3] = compound: CC(=O)c1c(C)c2cnc(Nc3ccc(N4CCNCC4)cn3)nc2n(C2CCCC2)c1=O; experiment: as above
Neratinib/HKI272 = compound: CCOc1cc2ncc(C#N)c(Nc3ccc(OCc4ccccn4)c(Cl)c3)c2cc1NC(=O)/C=C/CN(C)C [Neratinib/HKI272]; experiment: as above
Flavopiridol [4] = compound: T2, CN1CC[C@H](c2c(O)cc(O)c3c(=O)cc(-c4ccccc4Cl)oc23)[C@H](O)C1 [Flavopiridol]; experiment: as above
[5] = compound: CCc1cnn2c(NCc3ccc[n+]([O-])c3)cc(N3CCCC[C@H]3CCO)nc12; experiment: as above
[6] = compound: CCN1CCN(Cc2ccc(Nc3ncc(F)c(-c4cc(F)c5nc(C)n(C(C)C)c5c4)n3)nc2)CC1; experiment: increase in dead-cell fraction, 72 h; higher = more death;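 note: breast cancer cell lines in 384-well plates, stained with Hoechst plus LIVE/DEAD far red dye and imaged, cells above an LDR intensity threshold counted dead, Hoechst-negative corpses included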
LEE011/Ribociclib [7] = compound: T1, LEE011/Ribociclib; experiment: as above
[8] = compound: CC(=O)c1c(C)c2cnc(Nc3ccc(N4CCNCC4)cn3)nc2n(C2CCCC2)c1=O; experiment: as above
Flavopiridol [9] = compound: T2, Flavopiridol; experiment: as above

## HCC70
THZ1; 0.0001 µM
  GR value: 0.985 GR
THZ1; 0.0003162 µM
  GR value: 1.01 GR
THZ1; 0.001 µM
  GR value: 1.04 GR
THZ1; 0.003162 µM
  GR value: 1.02 GR
THZ1; 0.01 µM
  GR value: 0.707 GR
THZ1; 0.03162 µM
  GR value: -0.291 GR
THZ1; 0.1 µM
  GR value: -0.838 GR
THZ1; 0.3162 µM
  GR value: -0.936 GR
THZ1; 1 µM
  GR value: -0.944 GR
BSJ-03-123; 0.001 µM
  GR value: 1.1 GR
BSJ-03-123; 0.003162 µM
  GR value: 0.898 GR
BSJ-03-123; 0.01 µM
  GR value: 1 GR
BSJ-03-123; 0.03162 µM
  GR value: 0.996 GR
BSJ-03-123; 0.1 µM
  GR value: 0.911 GR
BSJ-03-123; 0.3162 µM
  GR value: 0.848 GR
BSJ-03-123; 1 µM
  GR value: 0.865 GR
BSJ-03-123; 3.162 µM
  GR value: 0.754 GR
BSJ-03-123; 10 µM
  GR value: -0.525 GR
[1]; 0.001 µM
  GR value: 1.06 GR
[1]; 0.003162 µM
  GR value: 1.38 GR
[1]; 0.01 µM
  GR value: 1.24 GR
[1]; 0.03162 µM
  GR value: 1.18 GR
[1]; 0.1 µM
  GR value: 1.2 GR
[1]; 0.3162 µM
  GR value: 1.06 GR
[1]; 1 µM
  GR value: 0.852 GR
[1]; 3.162 µM
  GR value: -0.0922 GR
[1]; 10 µM
  GR value: -0.82 GR
LEE011/Ribociclib [2]; 0.001 µM
  GR value: 1.03 GR
LEE011/Ribociclib [2]; 0.003162 µM
  GR value: 1.17 GR
LEE011/Ribociclib [2]; 0.01 µM
  GR value: 1.01 GR
LEE011/Ribociclib [2]; 0.03162 µM
  GR value: 1.04 GR
LEE011/Ribociclib [2]; 0.1 µM
  GR value: 1.09 GR
LEE011/Ribociclib [2]; 0.3162 µM
  GR value: 1.03 GR
LEE011/Ribociclib [2]; 1 µM
  GR value: 1.06 GR
LEE011/Ribociclib [2]; 3.162 µM
  GR value: 1.03 GR
LEE011/Ribociclib [2]; 10 µM
  GR value: 1.05 GR
[3]; 0.0003162 µM
  GR value: 0.988 GR
[3]; 0.001 µM
  GR value: 1.07 GR
[3]; 0.003162 µM
  GR value: 1.08 GR
[3]; 0.01 µM
  GR value: 1.07 GR
[3]; 0.03162 µM
  GR value: 1.09 GR
[3]; 0.1 µM
  GR value: 0.961 GR
[3]; 0.3162 µM
  GR value: 1.06 GR
[3]; 1 µM
  GR value: 1.05 GR
[3]; 3.162 µM
  GR value: 0.896 GR
Neratinib/HKI272; 0.0003162 µM
  GR value: 1.04 GR
Neratinib/HKI272; 0.001 µM
  GR value: 0.943 GR
Neratinib/HKI272; 0.003162 µM
  GR value: 1.02 GR
Neratinib/HKI272; 0.01 µM
  GR value: 0.986 GR
Neratinib/HKI272; 0.03162 µM
  GR value: 0.79 GR
Neratinib/HKI272; 0.1 µM
  GR value: 0.621 GR
Neratinib/HKI272; 0.3162 µM
  GR value: 0.377 GR
Neratinib/HKI272; 1 µM
  GR value: 0.128 GR
Neratinib/HKI272; 3.162 µM
  GR value: 0.0733 GR
Flavopiridol [4]; 0.0001 µM
  GR value: 1.05 GR
Flavopiridol [4]; 0.0003162 µM
  GR value: 1.01 GR
Flavopiridol [4]; 0.001 µM
  GR value: 1.1 GR
Flavopiridol [4]; 0.003162 µM
  GR value: 1.16 GR
Flavopiridol [4]; 0.01 µM
  GR value: 0.998 GR
Flavopiridol [4]; 0.03162 µM
  GR value: 0.791 GR
Flavopiridol [4]; 0.1 µM
  GR value: 0.371 GR
Flavopiridol [4]; 0.3162 µM
  GR value: -0.694 GR
Flavopiridol [4]; 1 µM
  GR value: -0.815 GR
[5]; 0.0001 µM
  GR value: 1.05 GR
[5]; 0.0003162 µM
  GR value: 0.913 GR
[5]; 0.001 µM
  GR value: 1.13 GR
[5]; 0.003162 µM
  GR value: 1.26 GR
[5]; 0.01 µM
  GR value: 0.835 GR
[5]; 0.03162 µM
  GR value: -0.865 GR
[5]; 0.1 µM
  GR value: -0.892 GR
[5]; 0.3162 µM
  GR value: -0.885 GR
[5]; 1 µM
  GR value: -0.901 GR
[6]; 0.001 µM
  increase in dead-cell fraction: 0.0027
[6]; 0.003162 µM
  increase in dead-cell fraction: -0.0178
[6]; 0.01 µM
  increase in dead-cell fraction: -0.0021
[6]; 0.03162 µM
  increase in dead-cell fraction: -0.0067
[6]; 0.1 µM
  increase in dead-cell fraction: -0.0175
[6]; 0.3162 µM
  increase in dead-cell fraction: -0.0179
[6]; 1 µM
  increase in dead-cell fraction: -0.0058
[6]; 3.162 µM
  increase in dead-cell fraction: 0.169
[6]; 10 µM
  increase in dead-cell fraction: 0.639
LEE011/Ribociclib [7]; 0.001 µM
  increase in dead-cell fraction: -0.0029
LEE011/Ribociclib [7]; 0.003162 µM
  increase in dead-cell fraction: 0.0024
LEE011/Ribociclib [7]; 0.01 µM
  increase in dead-cell fraction: -0.0096
LEE011/Ribociclib [7]; 0.03162 µM
  increase in dead-cell fraction: -0.0087
LEE011/Ribociclib [7]; 0.1 µM
  increase in dead-cell fraction: -0.0125
LEE011/Ribociclib [7]; 0.3162 µM
  increase in dead-cell fraction: -0.0098
LEE011/Ribociclib [7]; 1 µM
  increase in dead-cell fraction: -0.0021
LEE011/Ribociclib [7]; 3.162 µM
  increase in dead-cell fraction: -0.0069
LEE011/Ribociclib [7]; 10 µM
  increase in dead-cell fraction: -0.0152
[8]; 0.0003162 µM
  increase in dead-cell fraction: -0.0042
[8]; 0.001 µM
  increase in dead-cell fraction: 0.0102
[8]; 0.003162 µM
  increase in dead-cell fraction: -0.0045
[8]; 0.01 µM
  increase in dead-cell fraction: 0.0054
[8]; 0.03162 µM
  increase in dead-cell fraction: -0.0062
[8]; 0.1 µM
  increase in dead-cell fraction: 0.012
[8]; 0.3162 µM
  increase in dead-cell fraction: -0.0151
[8]; 1 µM
  increase in dead-cell fraction: -0.0002
[8]; 3.162 µM
  increase in dead-cell fraction: -0.0047
Flavopiridol [9]; 0.0001 µM
  increase in dead-cell fraction: -0.003
Flavopiridol [9]; 0.0003162 µM
  increase in dead-cell fraction: -0.0033
Flavopiridol [9]; 0.001 µM
  increase in dead-cell fraction: -0.0119
Flavopiridol [9]; 0.003162 µM
  increase in dead-cell fraction: -0.0038
Flavopiridol [9]; 0.01 µM
  increase in dead-cell fraction: 0.0008
Flavopiridol [9]; 0.03162 µM
  increase in dead-cell fraction: 0.009
Flavopiridol [9]; 0.1 µM
  increase in dead-cell fraction: 0.0351
Flavopiridol [9]; 0.3162 µM
  increase in dead-cell fraction: 0.487
Flavopiridol [9]; 1 µM
  increase in dead-cell fraction: 0.401
